Reference: paper PMC5075052, “Modulation of the Substitution Pattern of 5-Aryl-2-Aminoimidazoles Allows Fine-Tuning of Their Antibiofilm Activity Spectrum and Toxicity” (Antimicrobial Agents and Chemotherapy, 2016)
Like-named read-outs stand apart in the source and are kept apart here. Blank lines part the entries; values can stand above or below the compound they belong to.

Columns and labels:
[1] = test system: S. Typhimurium ATCC 14028; assay: Monospecies bacterial biofilm inhibition, static peg assay; format: cell-based, Salmonella enterica serovar Typhimurium; details: Salmonella enterica, S. Typhimurium ATCC 14028, 25°C
Method: (§1) A static peg assay, described previously ([27], [74]), was used for bacterial biofilm formation. The Calgary biofilm device consists of a platform carrying 96 polystyrene pegs (Nunc no. 445497) that fits as a microtiter plate lid, with 1 peg hanging into each microtiter plate well (Nunc no. 269789). Twofold serial dilutions of the compounds (dissolved in 100% dimethyl sulfoxide [DMSO] or ethanol) in 100 μl liquid broth (TSB diluted 1/20) per well were prepared in the microtiter plate in duplicate or triplicate with a maximum concentration of 1,600 μM and a minimum concentration of 0.8 μM. Subsequently, an overnight culture of S. Typhimurium ATCC 14028, P. aeruginosa PA14, E. coli TG1, S. epidermidis, S. aureus SH1000, or S. aureus ATCC 6538 (all grown in LB) was diluted 1:100 into TSB diluted 1/20 (or TSB for S. epidermidis, S. aureus SH1000, and S. aureus ATCC 6538), whereas overnight cultures of S. liquefaciens MG44 and B. cepacia LMG1222T were diluted 1:50 into TSB diluted 1/20. P. gingivalis ATCC 33277 cultures were diluted in TSB diluted 1/20 to have a final concentration of 1 × 10^8 cells/ml. Next, 100 μl was added to each well of the microtiter plate, resulting in a total volume of 200 μl medium per well (final concentration range of compounds, 800 μM [2% DMSO or ethanol] to 0.4 μM [0.001% DMSO or ethanol]). In the next step, the pegged lid was placed on the microtiter plate and the plate was incubated for 24 h or 48 h at 25°C or 37°C without shaking. At 37°C, the plates were placed in a sealed container with wet towels on the bottom to prevent evaporation of the growth medium. Biofilms of P. gingivalis ATCC 33277 were grown anaerobically at 37°C for 72 h. During this incubation period, biofilms were formed on the surface of the pegs. After incubation, the optical density at 600 nm (OD600) for the planktonic cells in the microtiter plate was measured using a Synergy MX multimode reader (BioTek, Winooski, VT). This gives a first indication of the effect of the compounds on planktonic growth. For quantification of biofilm formation, the pegs were washed once in 200 μl PBS. The remaining attached bacteria were stained for 30 min with 200 μl 0.1% (wt/vol) crystal violet in an isopropanol-methanol-PBS solution (1:1:18, vol/vol). Excess stain was rinsed off by placing the pegs in a 96-well plate filled with 200 μl distilled water per well. After air drying of the pegs (30 min), the dye bound to the adherent biofilm was extracted with 30% glacial acetic acid (200 μl per well of a 96-well plate). The optical density at 570 nm (OD570) of each well was measured using a Synergy MX multimode reader (BioTek, Winooski, VT). The concentration of each compound needed to inhibit biofilm formation by 50% (BIC50) and the concentration of each compound needed to inhibit planktonic growth by 50% (IC50) were determined from the concentration gradient by using nonlinear curve fitting (GraphPad Prism software, version 5; GraphPad Software, Inc., La Jolla, CA). In the same assay, the effect on planktonic growth was evaluated. The activity was considered biofilm specific if the BIC50 was at least two times lower than the IC50. Data represent the means from at least 3 technical repeats with the corresponding 95% confidence intervals (provided in the supplemental material).

S. epidermidis = assay: as above; format: cell-based, Staphylococcus epidermidis; details: Staphylococcus epidermidis, 37°C
Method: as §1

[2] = test system: C. albicans SC5314 + S. epidermidis; assay: Mixed C. albicans-S. epidermidis biofilm, selective plating CFU; format: cell-based, Candida albicans + Staphylococcus epidermidis; details: 37°C
Method: Overnight cultures of C. albicans SC5314 (YPD) and S. epidermidis (TSB) were diluted in RPMI 1640 medium to OD600s of 0.05 and 0.01, respectively. Equal volumes of the cell suspensions of each organism were mixed before use. One hundred microliters of this mixed cell suspension together with compound was added to the wells of a round-bottom microtiter plate (TPP; Trasadingen, Switzerland) in triplicate. Concentrations of 25 μM (0.0625% DMSO or ethanol) and 100 μM (0.25% DMSO or ethanol) were tested. After 24 h of incubation at 37°C, the biofilms were washed with PBS and fresh medium with or without compounds was added. After a further incubation for 48 h at 37°C, the biofilms were washed with PBS, after which the cells were resuspended in 100 μl of PBS by scraping them off, sonicated (1 min, 45 kHz; USC300-T; VWR, Radnor, PA, USA), and vigorously pipetted up and down. Finally, the biofilm cells were diluted in PBS and plated on YPD agar plates containing 100 mg/liter ampicillin and TSA plates containing 25 mg/liter amphotericin B to determine the number of fungal and bacterial CFU, respectively, after 2 days of incubation at 37°C. The percentage of C. albicans SC5314 and S. epidermidis cells relative to the number of cells after DMSO or ethanol control treatment was determined.

osteoblasts (OB) = assay: Metabolic activity, MTT staining; format: cell-based; details: 12.5 μM, 6 days of treatment
Method: (§2) The viability of two human primary cell types, namely, osteoblasts (OB) and bone marrow-derived mesenchymal stem cells (MSC), was tested according to the ISO 10993-5 standard, as previously described ([76]). Briefly, cells were seeded in 96-well tissue culture test plates (TPP; Trasadingen, Switzerland) at 5 × 10^3 cells/cm^2 in cell culture medium (advanced Dulbecco modified Eagle's medium [DMEM]) supplemented with 10% serum, 1× GlutaMAX, and 0.05 mg/ml gentamicin and were allowed to attach overnight. On the next day, the cells were exposed to (i) cell culture medium and medium with the corresponding control (0.5% ethanol or DMSO; negative controls), (ii) medium with 0.05% phenol (cytotoxic control), and (iii) medium with compounds (12.5 μM) and incubated for 2 h, 48 h, and 6 days (8 repeats for each condition). At each time point, the numbers of viable and dead cells were determined directly by trypan blue staining and indirectly by measuring metabolic activity with 3-(4,5-dimethylthiazol-2-yl)-2,5-diphenyltetrazolium bromide (MTT) staining.
(§3) The medium was removed from the wells, and 100 μl of medium supplemented with 10% serum and 0.5 mg/ml MTT was added to the cells. The cells were incubated overnight at 37°C in 5% CO2. On the next day, the medium with MTT was removed and 100 μl acidic isopropanol was added. The cells were then centrifuged at 2,300 × g, and 50 μl of the supernatant was transferred to a new 96-well plate. The absorbance at 570 nm was measured, and the background at 660 nm was measured. Four wells per condition were examined.

[3] = test system: bone marrow-derived mesenchymal stem cells (MSC); assay: Metabolic activity, MTT staining; format: cell-based; details: 12.5 μM, 6 days of treatment
Method: as §2, §3

[4] = read-out: IC50 (planktonic growth)
[5] = 25 μM compound, read-out: % CFU survival, C. albicans
[6] = 25 μM compound, read-out: % CFU survival, S. epidermidis
[7] = 100 μM compound, read-out: % CFU survival, C. albicans
[8] = 100 μM compound, read-out: % CFU survival, S. epidermidis

Compound: CCCCCn1c(-c2ccccc2)cnc1N [Compound 1]
IC50 ([1]; read-out: BIC50): 48.4 µM
IC50 (S. epidermidis; read-out: BIC50): ~202 µM
IC50 (S. epidermidis; [4]): ~329 µM

Compound: CCCCCCCCn1c(-c2ccc(Cl)cc2)cnc1N [Compound 2]
% CFU survival, C. albicans ([2]; 25 μM compound): completely inhibited
% CFU survival, S. epidermidis ([2]; 25 μM compound): completely inhibited
activity at 25 µM [2, 5]: < 0.6%
activity at 25 µM [2, 6]: 0%
activity at 100 µM [2, 7]: < 0.2%
activity at 100 µM [2, 8]: 0%
IC50 ([1]; read-out: BIC50): ~5.9 µM
IC50 (S. epidermidis; [4]): ~11.1 µM

Compound: CC(C)CNc1ncc(-c2ccc(Cl)cc2)[nH]1 [Compound 3]
activity at 25 µM [2, 5]: 58.3%
activity at 25 µM [2, 6]: 64.6%
activity at 100 µM [2, 7]: 235%
activity at 100 µM [2, 8]: 13.2%
IC50 ([1]; read-out: BIC50): 2 µM
IC50 (S. epidermidis; read-out: BIC50): > 400 µM
IC50 (S. epidermidis; [4]): 86.2 µM

Compound: CCCCNc1ncc(-c2ccc(Br)cc2)[nH]1 [Compound 4]
IC50 ([1]; read-out: BIC50): 7.1 µM
IC50 (S. epidermidis; read-out: BIC50): > 400 µM
IC50 (S. epidermidis; [4]): 54.4 µM

Compound: Clc1ccc(-c2cnc(NC3CCCC3)[nH]2)cc1 [Compound 5]
activity at 25 µM [2, 5]: 168%
activity at 25 µM [2, 6]: 72%
% CFU survival, S. epidermidis ([2]; 100 μM compound): complete inhibition
activity at 100 µM [2, 7]: 595%
activity at 100 µM [2, 8]: 2.3%
IC50 ([1]; read-out: BIC50): 4.4 µM
IC50 (S. epidermidis; read-out: BIC50): > 400 µM
IC50 (S. epidermidis; [4]): 39.5 µM

Compound: Brc1ccc(-c2cnc(NCCn3cc(C4CC4)nn3)[nH]2)cc1 [Compound 6]
IC50 ([1]; read-out: BIC50): 2 µM
IC50 [1, 4]: 2.4 µM
IC50 (S. epidermidis; read-out: BIC50): > 400 µM
IC50 (S. epidermidis; [4]): > 400 µM

Compound: CCCCCCCCn1c(-c2ccccc2)cnc1NCC(C)C [Compound 8a]
activity at 25 µM [2, 5]: 62.4%
activity at 100 µM [2, 7]: 1%
activity at 100 µM [2, 8]: 1%

Compound: CCCCCCCCn1c(-c2ccc(Cl)cc2)cnc1NCC(C)C [Compound 8b]
activity at 25 µM [2, 5]: 2%
activity at 25 µM [2, 6]: 6.1%
activity at 100 µM [2, 7]: 18.2%
activity at 100 µM [2, 8]: 0.7%

metabolic activity of OB (MTT) compared to solvent control (osteoblasts (OB)): increased
metabolic activity of MSC (MTT) compared to solvent control [3]: increased
Compound: CCCCCCCCn1c(-c2ccc(Br)cc2)cnc1NCC(C)C [Compound 8c]
activity at 25 µM [2, 5]: 3.2%
activity at 25 µM [2, 6]: 637%
activity at 100 µM [2, 7]: 8.4%
activity at 100 µM [2, 8]: 966%

metabolic activity of OB (MTT) compared to solvent control (osteoblasts (OB)): increased
metabolic activity of MSC (MTT) compared to solvent control [3]: increased
Compound: CCCCCCCCn1c(-c2ccc(Cl)c(Cl)c2)cnc1NCC(C)C [Compound 8d]
activity at 25 µM [2, 5]: 2.5%
activity at 100 µM [2, 7]: 1.4%

Compound: CCCCCCCCn1c(-c2ccccc2)cnc1NC1CCCC1 [Compound 8e]
activity at 25 µM [2, 5]: 10%
activity at 25 µM [2, 6]: 93.1%
activity at 100 µM [2, 7]: 2.5%
activity at 100 µM [2, 8]: 0%

Compound: CCCCCCCCn1c(-c2ccc(Cl)cc2)cnc1NC1CCCC1 [Compound 8f]
activity at 25 µM [2, 5]: 2.9%
activity at 25 µM [2, 6]: 2.5%
activity at 100 µM [2, 7]: 7.2%
activity at 100 µM [2, 8]: 0.3%

metabolic activity of OB (MTT) compared to solvent control (osteoblasts (OB)): increased
metabolic activity of MSC (MTT) compared to solvent control [3]: increased
Compound: CCCCCCCCn1c(-c2ccc(Br)cc2)cnc1NC1CCCC1 [Compound 8g]
activity at 25 µM [2, 5]: 3.3%
activity at 25 µM [2, 6]: 0%
activity at 100 µM [2, 7]: 5.9%
activity at 100 µM [2, 8]: 0%

metabolic activity of OB (MTT) compared to solvent control (osteoblasts (OB)): increased
metabolic activity of MSC (MTT) compared to solvent control [3]: increased
Compound: CCCCCCCCn1c(-c2ccc(Cl)c(Cl)c2)cnc1NC1CCCC1 [Compound 8h]
activity at 25 µM [2, 5]: 6.7%
activity at 25 µM [2, 6]: 2%
activity at 100 µM [2, 7]: 3.5%
activity at 100 µM [2, 8]: 2.2%
